The target of one assay is T1, CLK1 (Homo sapiens, UniProt P49759).
T1 construct: purchased Eurofins DiscoverX (contract service)
As to the kind of experiment: Kinase inhibition assay (Eurofins DiscoverX KinaseProfiler / KdElect), CLK1. The format is biochemical. The procedure: (§1) The activity of Compounds 1, 3, 4, 6, 7, 8, 9, 10 and 13 in inhibiting CLK1, CLK4, PLK4, and FLT3 kinases was determined. Stock solutions of the compounds being evaluated were prepared. The IC50 values were determined by the Eurofins DiscoverX services using either the KinaseProfiler or the KdElect kinase activity detection assays.

In a further assay the target is T2, CLK4 (Homo sapiens, UniProt Q9HAZ1).
T2 construct: purchased Eurofins DiscoverX (contract service)
T2 sequence (Q9HAZ1 whole entry): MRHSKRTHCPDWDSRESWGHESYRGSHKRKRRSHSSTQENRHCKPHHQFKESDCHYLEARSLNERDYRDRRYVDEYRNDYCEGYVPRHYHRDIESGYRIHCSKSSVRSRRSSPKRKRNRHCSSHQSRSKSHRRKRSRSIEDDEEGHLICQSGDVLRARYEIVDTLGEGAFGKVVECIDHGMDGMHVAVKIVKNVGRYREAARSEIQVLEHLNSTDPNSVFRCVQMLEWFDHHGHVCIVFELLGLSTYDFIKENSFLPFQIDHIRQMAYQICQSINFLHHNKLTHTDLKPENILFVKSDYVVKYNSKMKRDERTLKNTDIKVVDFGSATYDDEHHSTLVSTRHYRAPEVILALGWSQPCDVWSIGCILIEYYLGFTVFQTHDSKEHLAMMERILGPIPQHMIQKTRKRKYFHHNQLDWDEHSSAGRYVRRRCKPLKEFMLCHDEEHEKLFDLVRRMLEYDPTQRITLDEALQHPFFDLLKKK
As to the kind of experiment: Kinase inhibition assay (Eurofins DiscoverX KinaseProfiler / KdElect), CLK4. The format is biochemical. How it is done: as §1

The target of a further assay is T3, PLK4 (Homo sapiens, UniProt O00444).
T3 construct: purchased Eurofins DiscoverX (contract service)
T3 sequence (O00444 1-970): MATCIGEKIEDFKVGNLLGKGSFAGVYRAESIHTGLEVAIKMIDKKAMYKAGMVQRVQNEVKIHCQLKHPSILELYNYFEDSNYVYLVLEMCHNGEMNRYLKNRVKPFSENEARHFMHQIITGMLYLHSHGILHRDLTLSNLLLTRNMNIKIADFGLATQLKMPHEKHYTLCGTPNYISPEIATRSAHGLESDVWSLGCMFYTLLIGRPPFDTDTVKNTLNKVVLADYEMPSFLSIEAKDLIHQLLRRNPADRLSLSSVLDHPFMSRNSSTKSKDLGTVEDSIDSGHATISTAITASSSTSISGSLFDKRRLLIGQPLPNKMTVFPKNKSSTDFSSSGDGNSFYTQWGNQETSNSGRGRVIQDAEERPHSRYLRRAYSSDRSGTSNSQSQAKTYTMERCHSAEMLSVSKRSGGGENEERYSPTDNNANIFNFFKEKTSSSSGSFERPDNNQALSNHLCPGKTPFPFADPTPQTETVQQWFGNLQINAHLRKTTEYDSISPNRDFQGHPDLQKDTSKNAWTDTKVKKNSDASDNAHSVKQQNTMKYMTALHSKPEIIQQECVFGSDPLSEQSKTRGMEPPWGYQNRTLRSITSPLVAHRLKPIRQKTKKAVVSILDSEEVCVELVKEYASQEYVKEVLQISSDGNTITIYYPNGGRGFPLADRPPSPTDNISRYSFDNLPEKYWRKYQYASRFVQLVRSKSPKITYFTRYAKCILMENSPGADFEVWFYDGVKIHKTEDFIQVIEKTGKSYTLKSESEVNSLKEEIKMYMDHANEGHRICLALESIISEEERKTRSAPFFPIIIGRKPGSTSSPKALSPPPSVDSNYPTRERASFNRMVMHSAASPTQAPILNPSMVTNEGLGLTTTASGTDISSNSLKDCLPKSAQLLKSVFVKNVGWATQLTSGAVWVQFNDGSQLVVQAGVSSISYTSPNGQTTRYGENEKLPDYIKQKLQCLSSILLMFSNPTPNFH
As to the kind of experiment: Kinase inhibition assay (Eurofins DiscoverX KinaseProfiler / KdElect), PLK4. The format is biochemical. The procedure:
as §1

For a further assay, the target named is T4, FLT3 (Homo sapiens, UniProt P36888).
T4 construct: purchased Eurofins DiscoverX (contract service)
T4 sequence (P36888 27-993): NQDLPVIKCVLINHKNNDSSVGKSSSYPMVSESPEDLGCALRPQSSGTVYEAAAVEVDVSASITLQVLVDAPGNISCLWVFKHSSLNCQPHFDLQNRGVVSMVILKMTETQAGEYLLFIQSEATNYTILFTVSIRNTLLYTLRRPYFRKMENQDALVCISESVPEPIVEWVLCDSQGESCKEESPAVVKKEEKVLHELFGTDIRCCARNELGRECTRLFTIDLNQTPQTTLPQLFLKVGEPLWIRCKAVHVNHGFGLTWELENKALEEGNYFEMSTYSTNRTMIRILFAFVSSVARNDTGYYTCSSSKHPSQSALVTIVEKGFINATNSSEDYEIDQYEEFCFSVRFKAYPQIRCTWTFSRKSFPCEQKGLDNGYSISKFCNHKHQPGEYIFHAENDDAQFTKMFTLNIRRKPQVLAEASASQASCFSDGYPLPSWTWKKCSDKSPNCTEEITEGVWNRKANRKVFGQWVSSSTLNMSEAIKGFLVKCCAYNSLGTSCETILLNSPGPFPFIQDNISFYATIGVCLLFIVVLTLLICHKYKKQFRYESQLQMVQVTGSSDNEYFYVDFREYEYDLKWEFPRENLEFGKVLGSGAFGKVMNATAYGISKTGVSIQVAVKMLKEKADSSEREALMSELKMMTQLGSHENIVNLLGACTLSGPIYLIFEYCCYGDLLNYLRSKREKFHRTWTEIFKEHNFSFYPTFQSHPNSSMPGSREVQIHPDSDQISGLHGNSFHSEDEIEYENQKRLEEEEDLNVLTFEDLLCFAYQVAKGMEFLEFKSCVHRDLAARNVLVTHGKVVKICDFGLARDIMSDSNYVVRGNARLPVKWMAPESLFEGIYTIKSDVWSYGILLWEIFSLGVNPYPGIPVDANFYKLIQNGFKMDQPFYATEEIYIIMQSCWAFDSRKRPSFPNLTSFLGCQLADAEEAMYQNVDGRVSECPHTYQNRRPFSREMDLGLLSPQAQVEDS
As to the kind of experiment: Kinase assay (Eurofins DiscoverX KinaseProfiler / KdElect), FLT3. The format is binding. The note with it: read-out: FLT3 (Kd50 nM). The procedure:
Stock solutions of the compounds being evaluated were prepared. The IC50 values were determined by the Eurofins DiscoverX services using either the KinaseProfiler or the KdElect kinase activity detection assays.

In a further assay the test system is HCT-116. As to the kind of experiment: Cancer cytotoxicity assay (Real-Time-Glo cell viability), HCT-116. Type of assay: cell-based. The note with it: Homo sapiens, colorectal cancer cell line, 72 hr. How it is done:
(§2) The cytotoxicity of Compounds 1, 3, 4, 6, 7, 8, 9, 10, 12 and 13 against cancer cell lines was determined. To determine the optimal plating density for cell viability assays, for each cell line, cells were counted and diluted to final densities of 2.5, 5, 10 and 20 thousand per 100 μL of their respective growth media per well in 96 well plates. The Promega Real-Time-Glo cell viability kit was used to determine the optimal concentration for cell plating so that each cell line would be within the linear part of its growth curve after 72 hrs in culture. For the determination of test compound IC50s, different cancer cell lines were plated in 96 well plates in the pre-determined optimal density for each cell line. Test compounds were then added at different concentrations for the creation of six-point curve and cell density was determined using the Promega Real-Time-Glo cell viability kit after 24, 48, and 72 hrs in culture.

In a further assay the test system is HT-29. As to the kind of experiment: Cancer cytotoxicity assay (Real-Time-Glo cell viability), HT-29. The format is cell-based. As to conditions: Homo sapiens, colorectal cancer cell line, 72 hr. How it is done:
as §2

Another assay concerns A-498. As to the kind of experiment: Cancer cytotoxicity assay (Real-Time-Glo cell viability), A-498. The format is cell-based. The note with it: Homo sapiens, A498; kidney cancer, 72 hr. How it is done:
as §2

The next assay deals with 786-O. As to the kind of experiment: Cancer cytotoxicity assay (Real-Time-Glo cell viability), 786-O. Type of assay: cell-based. As to conditions: Homo sapiens, 786-0; kidney cancer, 72 hr. The procedure:
as §2

Another assay has as its system SKOV-3. As to the kind of experiment: Cancer cytotoxicity assay (Real-Time-Glo cell viability), SKOV-3. Type of assay: cell-based. The note with it: Homo sapiens, SK-OV-3; ovarian cancer cell line, 72 hr. How it is done:
as §2

For a further assay, the system named is OV-90. As to the kind of experiment: Cancer cytotoxicity assay (Real-Time-Glo cell viability), OV-90. The format is cell-based. As to conditions: Homo sapiens, ovarian cancer cell line, 72 hr. How it is done: as §2
For another assay, the system named is Kasumi-1. As to the kind of experiment: Cancer cytotoxicity assay (Real-Time-Glo cell viability), Kasumi-1. As to conditions: Homo sapiens, leukemia cell, 72 hr. The format is cell-based. The procedure:
as §2

For the next assay, the system named is Kasumi-3. As to the kind of experiment: Cancer cytotoxicity assay (Real-Time-Glo cell viability), Kasumi-3. Type of assay: cell-based. The note with it: leukemia cell, 72 hr. The procedure:
as §2

Another assay deals with MV4-11. As to the kind of experiment: Cancer cytotoxicity assay (Real-Time-Glo cell viability), MV4-11. The format is cell-based. As to conditions: Homo sapiens, leukemia cell, 72 hr. How it is done: as §2
For another assay, the system named is HT-29 cells. As to the kind of experiment: Reduction of colorectal tumor mass, HT-29 xenograft in nude mice. The format is in vivo, Male nude mice. The note with it: 5 mg/kg I.P. every 48 h. The procedure:
Male nude mice ages 6-8 weeks (NU/J. Jackson Laboratories) received rear, hind leg flank subcutaneous injections of 5×10^6 HT-29 cells diluted 1:1 in matrigel-cell culture media. Mice were then monitored daily until tumor nodules reached 100-200 mm^3 upon which point they were randomized into treatment groups based on their weight and tumor size and treatment. Mice (10 mice per group) were injected I.P. every 48 h with 100 μL of either vehicle control or Compound 8 (5 mg/kg). Tumor nodules were then monitored every 48 h for up to 28 days with tumor volumes calculated using the equation V=(L*W2)/2 where L is length and W is width of a tumor. Differences in xenograft volumes between the different groups were analyzed by single factor analysis of variance of the log-transformed tumor volume data. Mice with tumors that exceed 1000 mm^3 were euthanized to avoid excessive suffering.

Structures are written as SMILES.

One may read the IC50 as the concentration that inhibits the measured activity by half.

T1 sequence (P49759 whole entry): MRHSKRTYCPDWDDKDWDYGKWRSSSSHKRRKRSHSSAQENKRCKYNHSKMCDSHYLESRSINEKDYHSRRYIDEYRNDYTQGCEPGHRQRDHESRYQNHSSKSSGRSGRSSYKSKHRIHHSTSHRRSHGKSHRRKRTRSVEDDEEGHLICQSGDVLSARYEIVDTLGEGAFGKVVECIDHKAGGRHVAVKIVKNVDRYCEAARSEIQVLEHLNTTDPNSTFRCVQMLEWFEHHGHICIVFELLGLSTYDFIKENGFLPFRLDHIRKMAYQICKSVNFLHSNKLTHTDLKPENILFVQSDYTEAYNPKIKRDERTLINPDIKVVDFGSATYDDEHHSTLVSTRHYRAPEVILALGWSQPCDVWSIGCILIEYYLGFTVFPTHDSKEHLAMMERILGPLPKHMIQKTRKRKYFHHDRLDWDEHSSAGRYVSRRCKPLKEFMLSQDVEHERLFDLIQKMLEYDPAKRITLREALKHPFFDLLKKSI

As to `CCc1cc(Nc2nc(N3CCC(F)(F)CC3)nc3cc(OCCCN4CCCC4)c(OC)cc23)n[nH]1` [Compound 8, 2-(4,4-difluoropiperidin-1-yl)-N-(5-ethyl-1H-pyrazol-3-yl)-6-methoxy-7-(3-(pyrrolidin-1-yl)propoxy)quinazolin-4-amine], the IC50 against CLK1 is below 1000 nM; at CLK4 it was below 1000 nM; against PLK4 it was below 1000 nM; with HCT-116, 1000 to 5000 nM; in the assay with HT-29, 1000 to 5000 nM; in the assay on A-498, 1000 to 5000 nM. In addition, the IC50 is 1000 to 5000 nM in the assay with 786-O; 1000 to 5000 nM in the assay on SKOV-3; 1000 to 5000 nM in the assay with OV-90; 1000 to 5000 nM in the assay with Kasumi-1; 1000 to 5000 nM in the assay with Kasumi-3; below 1000 nM in the assay with MV4-11. Also, the Kd on FLT3 is below 1 µM. In the assay with HT-29 cells (16 day study), the “tumor growth compared to vehicle control (FIG. 3A)” value is given as “significantly slower tumor growth”. The “tumors on day 16 compared to vehicle” value in the assay with HT-29 cells (day 16) is “significantly smaller tumors”. In the assay on HT-29 cells (vehicle 600%), the “increase of tumor (FIG. 3B, tumor mass)” value turned out to be 370%.

Regarding `COc1cc2c(Nc3cc(C(C)(C)C)[nH]n3)nc(N3CCC(F)(F)CC3)nc2cc1OCCCN1CCCC1` [Compound 7, N-(5-(tert-butyl)-1H-pyrazol-3-yl)-2-(4,4-difluoropiperidin-1-yl)-6-methoxy-7-(3-(pyrrolidin-1-yl)propoxy)quinazolin-4-amine], the IC50 is below 1000 nM against CLK1; below 1000 nM against CLK4; above 10000 nM against PLK4; 1000 to 5000 nM in the assay on HCT-116; 1000 to 5000 nM with HT-29; 1000 to 5000 nM in the assay on A-498. For the same compound, the IC50 in the assay on 786-O, in the assay on SKOV-3, in the assay on OV-90, in the assay on Kasumi-1, in the assay with Kasumi-3 and in the assay on MV4-11 was 1000 to 5000 nM each time. Moreover, the Kd on FLT3 was above 10 µM.

On to `COc1cc2c(Nc3cc(C)[nH]n3)nc(N3CCCC3)nc2cc1OCCCN1CCCC1` [Compound 1, 6-Methoxy-N-(5-methyl-1H-pyrazol-3-yl)-2-(pyrrolidin-1-yl)-7-(3-(pyrrolidin-1-yl)propoxy)quinazolin-4-amine], for which the IC50 is below 1000 nM against CLK1; 5000 to 10000 nM at CLK4; above 10000 nM at PLK4; 1000 to 5000 nM with HCT-116; 5000 to 10000 nM in the assay on HT-29; 1000 to 5000 nM in the assay with A-498. In addition, the IC50 is 5000 to 10000 nM in the assay with 786-O; 1000 to 5000 nM with SKOV-3; 1000 to 5000 nM in the assay on OV-90; 1000 to 5000 nM in the assay with Kasumi-1; 5000 to 10000 nM in the assay on Kasumi-3; below 1000 nM with MV4-11. In addition, the kinase selectivity result at CLK1 (among CLK1, CLK4, PLK4, FLT3) is given as “selective CLK1/4 inhibitor”. At FLT3, the Kd is above 10 µM.

These data come from patent US20240199597A1, “SMALL MOLECULES FOR THE TREATMENT OF KINASE-RELATED DISEASES” (Athos Therapeutics, Inc., priority 2021, published 2024).
